# Data taken from PubChem BioAssay AID742 (SRMLSC, 2007).
# Calls of active or inactive are those of the source. No rule for the calls is given here.
# Columns and labels:
# [1] = inhibitors of Her2 kinase expression, dose response, cell-based, AlphaScreen, CellTiter-Glo viability (AID 742); conditions: human cells, Her2 expression AlphaScreen; CTG viability; at 9.62 µM (top of the series)
# [2] = test system: human cells, Her2 expression AlphaScreen; CTG viability; experiment: as above; conditions: viability, CellTiter-Glo
Compound,Her2 inhibition [1],EC50 [2]
CC1(C)CC(=O)C2(CC3=C(CC(C)(C)CC3=O)O2)C(=O)C1,-2.95% (inactive),> 9.62 µM
O=C(O)CCc1nn2cc(-c3ccccc3)nc2[nH]c1=O,-26.9% (inactive),> 9.62 µM
Nc1nc2n(n1)C(c1cccs1)CC(c1ccc(Br)cc1)N2 (stereo not drawn),-10.7% (inactive),> 9.62 µM
O=C(CCCCCn1c(=S)[nH]c2cc3c(cc2c1=O)OCO3)N1CCN(C2CCCCC2)CC1,4.12% (inactive),> 9.62 µM
CS(=O)c1nc(-c2ccc(Br)cc2)cc(-c2ccccc2)c1C#N (stereo not drawn),34% (inactive),> 9.62 µM
CSCC[C@H](NC(=O)NCc1ccc(F)cc1)C(=O)O,-11.5% (inactive),> 9.62 µM
C=CCN=C(NC#N)SCc1ccccc1Cl,0.27% (inactive),> 9.62 µM
CCCCNC(=O)OCCNC(=O)NC,-40% (inactive),> 9.62 µM
O=C1CC(Sc2nnnn2C2CCCCC2)C(=O)N1c1ccccc1 (stereo not drawn),-12.8% (inactive),> 9.62 µM
CCN(CCNC(=O)C1CCN(Cc2nc(-c3cccc(Cl)c3)oc2C)CC1)c1ccccc1,-54.8% (inactive),> 9.62 µM
CC(C)N1CCC2(CC1)N=C(c1ccc3c(c1)OCO3)CC(c1cc(Cl)ccc1O)N2 (stereo not drawn),20.5% (inactive),> 9.62 µM
CC(C)(C)c1cc(C(c2cccnc2)N2CCN(CCO)CC2)cc(C(C)(C)C)c1O (stereo not drawn),7.24% (inactive),> 9.62 µM
COC(=O)CC1=C(C(=O)OC)C(c2ccc3c(c2Cl)OCO3)C(C#N)=C(N)O1 (stereo not drawn),-10.7% (inactive),> 9.62 µM
CCOC(=O)C(C(=O)OCC)c1cc(Br)c2noc3c2c1C(=O)c1ccccc1-3,18.8% (inactive),> 9.62 µM
